Reference: patent US20090197880A1 (Genelabs Technologies, Inc., priority 2007, published 2009)

Assay: HCV replicon assay (luciferase) in ET (Huh-lucubineo-ET) cell line
Type: cell-based
Details: Hepatitis C virus; tested at 10 μM; inhibition of replication relative to no compound control; ET replicon cells, luciferase 48-72 hours; read-out: % inhition at 10 μM

SMILES | inhibition at 10 µM [%]
Fc1cccc(-c2nc3cnn(Cc4cc(-c5ccc(CN6CCCC6)cc5)no4)cc-3n2)c1F [Compound 219, 2-(2,3-Difluoro-phenyl)-5-[3-(4-pyrrolidin-1-ylmethyl-phenyl)-isoxazol-5-ylmethyl]-5H-imidazo[4,5-d]pyridazine] | 35
CCOc1ccc(-c2cc(Cn3cc4nc(-c5cccc(F)c5F)nc-4cn3)on2)cc1 [Compound 220, 2-(2,3-Difluoro-phenyl)-5-[3-(4-ethoxy-phenyl)-isoxazol-5-ylmethyl]-5H-imidazo[4,5-d]pyridazine] | 99.7
COc1ccc(-c2cc(Cn3cc4nc(-c5cccc(F)c5F)nc-4cn3)on2)cc1 [Compound 221, 2-(2,3-Difluoro-phenyl)-5-[3-(4-methoxy-phenyl)-isoxazol-5-ylmethyl]-5H-imidazo[4,5-d]pyridazine] | 98.9
CCCCOc1ccc(-c2cc(Cn3cc4nc(-c5cccc(F)c5F)nc-4cn3)on2)cc1 [Compound 222, 5-[3-(4-Butoxy-phenyl)-isoxazol-5-ylmethyl]-2-(2,3-difluoro-phenyl)-5H-imidazo[4,5-d]pyridazine] | 98.2
CC(c1cc(-c2ccc(C(F)(F)F)cc2C(F)(F)F)no1)n1cc2nc(-c3cccc(F)c3F)nc-2cn1 (stereo not drawn) [Compound 226, 5-{1-[3-(2,4-Bis-trifluoromethyl-phenyl)-isoxazol-5-yl]-ethyl}-2-(2,3-difluoro-phenyl)-5H-imidazo[4,5-d]pyridazine] | 99.7
CC(C)(c1cc(-c2ccc(C(F)(F)F)cc2C(F)(F)F)no1)n1cc2nc(-c3cccc(F)c3F)nc-2cn1 [Compound 227, 5-{1-[3-(2,4-Bis-trifluoromethyl-phenyl)-isoxazol-5-yl]-1-methyl-ethyl}-2-(2,3-difluoro-phenyl)-5H-imidazo[4,5-d]pyridazine] | 97.9
COc1ccc(-c2noc(Cn3cc4nc(-c5cccc(F)c5F)nc-4cn3)n2)cc1 [Compound 228, 2-(2,3-Difluoro-phenyl)-5-[3-(4-methoxy-phenyl)-[1,2,4]oxadiazol-5-ylmethyl]-5H-imidazo[4,5-d]pyridazine] | 40.8
Fc1cccc(-c2nc3cnn(Cc4noc(-c5ccc(C(F)(F)F)cc5)n4)cc-3n2)c1F [Compound 230, 2-(2,3-Difluoro-phenyl)-5-[5-(4-trifluoromethyl-phenyl)-[1,2,4]oxadiazol-3-ylmethyl]-5H-imidazo[4,5-d]pyridazine] | 35.8
FC(F)(F)c1ccc(-c2cc(Cn3cc4nc(-c5ccccn5)nc-4cn3)on2)c(C(F)(F)F)c1 [Compound 231, 5-[3-(2,4-Bis-trifluoromethyl-phenyl)-isoxazol-5-ylmethyl]-2-pyridin-2-yl-5H-imidazo[4,5-d]pyridazine] | 42
Nc1nn(Cc2cc(-c3ccc(C(F)(F)F)cc3C(F)(F)F)no2)cc2nc(-c3cccc(F)c3F)nc1-2 [Compound 233, 6-[3-(2,4-Bis-trifluoromethyl-phenyl)-isoxazol-5-ylmethyl]-2-(2,3-difluoro-phenyl)-6H-imidazo[4,5-d]pyridazin-4-ylamine] | 96.8
CCCOc1ccc(-c2cc(Cn3cc4nc(-c5cccc(F)c5F)nc-4c(N)n3)on2)cc1 [Compound 235, 2-(2,3-Difluoro-phenyl)-6-[3-(4-propoxy-phenyl)-isoxazol-5-ylmethyl]-6H-imidazo[4,5-d]pyridazin-4-ylamine] | 56
Nc1nn(Cc2cc(-c3ccc(C(F)(F)F)cc3F)no2)cc2nc(-c3cccc(F)c3F)nc1-2 [Compound 236, 2-(2,3-Difluoro-phenyl)-6-[3-(2-fluoro-4-trifluoromethyl-phenyl)-isoxazol-5-ylmethyl]-6H-imidazo[4,5-d]pyridazin-4-ylamine] | 76.8
Nc1nn(Cc2cc(-c3ccc(C(F)(F)F)cc3C(F)(F)F)no2)c(N)c2nc(-c3cccc(F)c3F)nc1-2 [Compound 237, 5-[3-(2,4-Bis-trifluoromethyl-phenyl)-isoxazol-5-ylmethyl]-2-(2,3-difluoro-phenyl)-5H-imidazo[4,5-d]pyridazine-4,7-diamine] | 1.73
Fc1ccccc1-c1nc2cnn(Cc3cc(-c4ccc(Cl)cc4)on3)cc-2n1 [Compound 239, 5-[5-(4-Chloro-phenyl)-isoxazol-3-ylmethyl]-2-(2-fluoro-phenyl)-5H-imidazo[4,5-d]pyridazine] | 95.3
COc1ccc(-c2nc(Cn3cc4nc(-c5ccccc5F)nc-4cn3)no2)cc1 [Compound 240, 2-(2-Fluoro-phenyl)-5-[5-(4-methoxy-phenyl)-[1,2,4]oxadiazol-3-ylmethyl]-5H-imidazo[4,5-d]pyridazine] | 16.4
Fc1cccc(-c2nc3cnn(Cc4cc(-c5ccc(C(F)(F)F)cc5)on4)cc-3n2)c1F [Compound 241, 2-(2,3-Difluoro-phenyl)-5-[5-(4-trifluoromethyl-phenyl)-isoxazol-3-ylmethyl]-5H-imidazo[4,5-d]pyridazine] | 99.7
Fc1cccc(-c2nc3cnn(Cc4cc(-c5ccc(OC(F)(F)F)cc5)on4)cc-3n2)c1F [Compound 242, 2-(2,3-Difluoro-phenyl)-5-[5-(4-trifluoromethoxy-phenyl)-isoxazol-3-ylmethyl]-5H-imidazo[4,5-d]pyridazine] | 97

SMILES | inhibition at 10 µM [%]
CCCOc1ccc(-c2cc(Cn3cc4nc(-c5cccc(F)c5F)nc-4cn3)no2)cc1 [Compound 243, 2-(2,3-Difluoro-phenyl)-5-[5-(4-propoxy-phenyl)-isoxazol-3-ylmethyl]-5H-imidazo[4,5-d]pyridazine] | 99.4
Fc1cccc(-c2nc3ccn(Cc4cc(-c5ccc(C(F)(F)F)cc5C(F)(F)F)no4)nc-3n2)c1F [Compound 245, 2-[3-(2,4-Bis-trifluoromethyl-phenyl)-isoxazol-5-ylmethyl]-6-(2,3-difluoro-phenyl)-2H-imidazo[4,5-c]pyridazine] | 72.8
Fc1cccc(-c2nc3ccn(Cc4cc(-c5ccc(C(F)(F)F)cc5)no4)nc-3n2)c1F [Compound 246, 6-(2,3-Difluoro-phenyl)-2-[3-(4-trifluoromethyl-phenyl)-isoxazol-5-ylmethyl]-2H-imidazo[4,5-c]pyridazine] | 62.1
Fc1cc(C(F)(F)F)ccc1-c1cc(Cn2ccc3nc(-c4cccc(F)c4F)nc-3n2)on1 [Compound 247, 6-(2,3-Difluoro-phenyl)-2-[3-(2-fluoro-4-trifluoromethyl-phenyl)-isoxazol-5-ylmethyl]-2H-imidazo[4,5-c]pyridazine] | 80
FC(F)(F)c1ccc(-c2cc(Cn3cc4nc(Nc5ccccc5)nc-4cn3)on2)c(C(F)(F)F)c1 [Compound 248, {5-[3-(2,4-Bis-trifluoromethyl-phenyl)-isoxazol-5-ylmethyl]-5H-imidazo[4,5-d]pyridazin-2-yl}-phenyl-amine] | 15.5
FC(F)(F)c1ccc(-c2cc(Cn3cc4nc(NCc5ccccc5)nc-4cn3)on2)c(C(F)(F)F)c1 [Compound 251, Benzyl-{5-[3-(2,4-bis-trifluoromethyl-phenyl)-isoxazol-5-ylmethyl]-5H-imidazo[4,5-d]pyridazin-2-yl}-amine] | 97.7
Fc1cccc(CNc2nc3cnn(Cc4cc(-c5ccc(C(F)(F)F)cc5C(F)(F)F)no4)cc-3n2)c1F [Compound 255, {5-[3-(2,4-Bis-trifluoromethyl-phenyl)-isoxazol-5-ylmethyl]-5H-imidazo[4,5-d]pyridazin-2-yl}-(2,3-difluoro-benzyl)-amine] | 4.67
FC(F)(F)c1ccc(-c2cc(Cn3cc4nc(NCCc5ccccc5)nc-4cn3)on2)c(C(F)(F)F)c1 [Compound 256, {5-[3-(2,4-Bis-trifluoromethyl-phenyl)-isoxazol-5-ylmethyl]-5H-imidazo[4,5-d]pyridazin-2-yl}-phenethyl-amine] | 9.34
FC(F)(F)c1ccc(-c2cc(Cn3cc4nc(N5CCc6ccccc6C5)nc-4cn3)on2)c(C(F)(F)F)c1 [Compound 257, 2-{5-[3-(2,4-Bis-trifluoromethyl-phenyl)-isoxazol-5-ylmethyl]-5H-imidazo[4,5-d]pyridazin-2-yl}-1,2,3,4-tetrahydro-isoquinoline] | 0.87
CC(Nc1nc2cnn(Cc3cc(-c4ccc(C(F)(F)F)cc4C(F)(F)F)no3)cc-2n1)c1ccccc1 (stereo not drawn) [Compound 258, {5-[3-(2,4-Bis-trifluoromethyl-phenyl)-isoxazol-5-ylmethyl]-5H-imidazo[4,5-d]pyridazin-2-yl}-(1-phenyl-ethyl)-amine] | 40
FC(F)(F)c1ccc(-c2cc(Cn3cc4nc(NC5CCc6ccccc65)nc-4cn3)on2)c(C(F)(F)F)c1 (stereo not drawn) [Compound 259] | 50.6
FC(F)(F)c1ccc(-c2cc(Cn3cc4nc(NC5CCCc6ccccc65)nc-4cn3)on2)c(C(F)(F)F)c1 (stereo not drawn) [Compound 260, {5-[3-(2,4-Bis-trifluoromethyl-phenyl)-isoxazol-5-ylmethyl]-5H-imidazo[4,5-d]pyridazin-2-yl}-(1,2,3,4-tetrahydro-naphthalen-1-yl)-amine] | 53.2
FC(F)(F)c1ccc(-c2cc(Cn3cc4nc(N5Cc6ccccc6C5)nc-4cn3)on2)c(C(F)(F)F)c1 [Compound 261, 5-[3-(2,4-Bis-trifluoromethyl-phenyl)-isoxazol-5-ylmethyl]-2-(1,3-dihydro-isoindol-2-yl)-5H-imidazo[4,5-d]pyridazine] | 73.9
Oc1nn(Cc2cc(-c3ccc(C(F)(F)F)cc3C(F)(F)F)no2)cc2nc(-c3cccc(F)c3F)nc1-2 [Compound 262, 6-[3-(2,4-Bis-trifluoromethyl-phenyl)-isoxazol-5-ylmethyl]-2-(2,3-difluoro-phenyl)-6H-imidazo[4,5-d]pyridazin-4-ol] | 96.6
COc1ccc(-c2cc(Cn3cc4nc(-c5cccc(F)c5F)nc-4cn3)on2)c(C(=O)O)c1 [Compound 266, 2-{5-[2-(2,3-Difluoro-phenyl)-imidazo[4,5-d]pyridazin-5-ylmethyl]-isoxazol-3-yl}-5-methoxy-benzoic Acid] | 10
COc1ccc(-c2ccc(-c3cc(Cn4cc5nc(-c6cccc(F)c6F)nc-5cn4)on3)cc2)cc1 [Compound 268, 2-(2,3-Difluoro-phenyl)-5-[3-(4′-methoxy-biphenyl-4-yl)-isoxazol-5-ylmethyl]-5H-imidazo[4,5-d]pyridazine] | 93.7
